Measurements as given in the supplement of paper PMC10307832.

Columns and labels:
Assay in all cases: relative viability (nuclei count vs DMSO), 5 days (fraction); higher = more cells survive
Vandetanib + Pictilisib = compound: COc1cc2/c(=N/c3ccc(Br)cc3F)nc[nH]c2cc1OCC1CCN(C)CC1 [Vandetanib] + CS(=O)(=O)N1CCN(Cc2cc3nc(-c4cccc5[nH]ncc45)nc(N4CCOCC4)c3s2)CC1 [Pictilisib] (partner 1 µM)
Summary of the method: (§1)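 Lung cancer cell lines in 1536-well plates were dosed by pin tool the day after seeding, either with one drug alone or with a fixed anchor-drug dose plus five library-drug doses (not always all listed) in √10 steps. After 5 days, cells were fixed and their nuclei stained in one step (final 0.05% Triton X-100, 1% formaldehyde, 1 ug/ml Hoechst), then counted on 4× images. Relative viability is the nuclei count in treated wells divided by that in vehicle wells. Values are medians of duplicate plates.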

CUDC-101 + Pictilisib = compound: C#Cc1cccc(Nc2ncnc3cc(OC)c(OCCCCCCC(=O)NO)cc23)c1 [CUDC-101] + CS(=O)(=O)N1CCN(Cc2cc3nc(-c4cccc5[nH]ncc45)nc(N4CCOCC4)c3s2)CC1 [Pictilisib] (partner 1 µM)
Summary of the method: as §1

[1] = compound: C1=CC=C2C(=C1)N=C(S2)C(C#N)C3=NC(=NC=C3)NCCC4=CN=CC=C4 + Nc1ncn([C@H]2C[C@H](O)[C@@H](CO)O2)c(=O)n1 [Decitabine] (partner 2 µM)
Summary of the method: as §1

CUDC-101 + Trametinib = compound: C#Cc1cccc(Nc2ncnc3cc(OC)c(OCCCCCCC(=O)NO)cc23)c1 [CUDC-101] + CC(=O)Nc1cccc(-n2c(=O)n(C3CC3)c(=O)c3c(Nc4ccc(I)cc4F)n(C)c(=O)c(C)c32)c1 [Trametinib] (partner 0.02 µM)
Summary of the method: as §1

Cell Line | relative viability (Vandetanib + Pictilisib; first compound 0.02 µM) | relative viability (Vandetanib + Pictilisib; first compound 0.06325 µM) | relative viability (Vandetanib + Pictilisib; first compound 0.2 µM) | relative viability (Vandetanib + Pictilisib; first compound 0.6325 µM) | relative viability (Vandetanib + Pictilisib; first compound 2 µM) | relative viability (CUDC-101 + Pictilisib; first compound 0.01 µM) | relative viability (CUDC-101 + Pictilisib; first compound 0.03162 µM) | relative viability (CUDC-101 + Pictilisib; first compound 0.1 µM) | relative viability (CUDC-101 + Pictilisib; first compound 0.3162 µM) | relative viability (CUDC-101 + Pictilisib; first compound 1 µM) | relative viability ([1]; first compound 0.005 µM) | relative viability ([1]; first compound 0.01581 µM) | relative viability ([1]; first compound 0.05 µM) | relative viability ([1]; first compound 0.1581 µM) | relative viability ([1]; first compound 0.5 µM) | relative viability (CUDC-101 + Trametinib; first compound 0.01 µM) | relative viability (CUDC-101 + Trametinib; first compound 0.03162 µM) | relative viability (CUDC-101 + Trametinib; first compound 0.1 µM) | relative viability (CUDC-101 + Trametinib; first compound 0.3162 µM) | relative viability (CUDC-101 + Trametinib; first compound 1 µM)
201T | 0.663 | 0.648 | 0.652 | 0.706 | 0.692 | 0.702 | 0.653 | 0.636 | 0.626 | 0.59 | 0.772 | 0.91 | 0.868 | 0.833 | 0.911 | 0.734 | 0.711 | 0.714 | 0.69 | 0.701
A549 | 0.499 | 0.419 | 0.614 | 0.473 | 0.412 | 0.578 | 0.489 | 0.5 | 0.453 | 0.288 | 0.239 | 0.33 | 0.239 | 0.312 | 0.323 | – | – | – | – | –
A-427 | 0.676 | 0.626 | 0.762 | 0.674 | 0.777 | 0.804 | 0.656 | 0.655 | 0.698 | 0.614 | 0.599 | 0.495 | 0.568 | 0.555 | 0.574 | 0.763 | 0.743 | 0.736 | 0.733 | 0.461
ABC-1 | 0.794 | 0.673 | 0.866 | 0.664 | 0.765 | 0.688 | 0.788 | 0.547 | 0.533 | 0.212 | 0.915 | – | 0.906 | 1.15 | 1.13 | – | – | – | – | –
BEN | 0.576 | 0.49 | 0.585 | 0.646 | 0.538 | 0.569 | 0.499 | 0.601 | 0.454 | 0.304 | 0.654 | 0.666 | 0.664 | 0.863 | 0.811 | 1.03 | 0.889 | 0.895 | 0.972 | 0.706
CAL-12T | 0.436 | 0.412 | 0.398 | 0.398 | 0.311 | 0.686 | 0.64 | 0.396 | 0.449 | 0.396 | – | – | – | – | – | 0.311 | 0.381 | 0.373 | 0.41 | 0.335
COR-L23 | 0.709 | 0.643 | 0.989 | 0.813 | 0.78 | 0.846 | 0.861 | 0.751 | 0.68 | 0.23 | 0.439 | 0.45 | 0.415 | 0.472 | 0.424 | 0.641 | 0.548 | 0.74 | 0.574 | 0.332
COR-L 105 | 0.408 | 0.405 | 0.412 | 0.344 | 0.335 | 0.466 | 0.376 | 0.352 | 0.313 | 0.189 | 0.597 | 0.628 | 0.638 | 0.637 | 0.642 | 0.442 | 0.424 | 0.41 | 0.452 | 0.311
Calu-6 | 0.938 | 0.9 | 0.881 | 0.807 | 0.907 | 0.944 | 0.869 | 0.929 | 0.764 | 0.522 | – | – | – | – | – | – | – | – | – | –
